SMILES strings stand for the structures. Read-outs that look alike come from different tables or passages of the source.

Assay [1] has as its system pAKT in BT474 cells. Briefly: Cell-based pAKT HTRF assay in BT474 cells. Particulars: BT474 cells, 4 hr incubation, read-out: pAKT inhibition IC50 in BT474 cells. The method, boiled down: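 pAKT was measured by HTRF after a 4 hr compound exposure in BT474 cells (DMEM, 10% FBS, 0.25% DMSO), using 9 concentrations from 3 μM in 3-fold steps. Cell lysates were incubated with the Eu cryptate/d2 antibody pair at room temperature for 4 to 24 h. The plate was then read at 320 nm excitation and 615 nm emission.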
On the technique in general: TR-FRET usually uses a lanthanide donor and a delayed reading to cut background.

Assay [2] addresses Cys242 in human PIK3CA (157-299) (Homo sapiens (Human), UniProt P42336). Briefly: Covalent modification assay using MALDI-TOF MS. The class given is biochemical. To be noted: 4 h reaction time point. The method, boiled down: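 Covalent adduct formation was read by linear-mode MALDI-TOF with sinapinic acid matrix, reported as modified-protein peak height divided by total protein peak heights. Reactions held PIK3CA (157-299) at 1 or 3.33 μM in HEPES/NaCl/MgCl2 buffer, pH 7.3, sampled after 15 min to 4 h at room temperature.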

Where [3] appears, read: 3.33 μM protein target, 1:7.5 protein to compound ratio (compounds 1-852).
Setting [4] is: 1 μM protein target, 1:5 protein to compound ratio (compounds 853-1279).

Sequence of Cys242 in human PIK3CA (157-299) (P42336 157-299): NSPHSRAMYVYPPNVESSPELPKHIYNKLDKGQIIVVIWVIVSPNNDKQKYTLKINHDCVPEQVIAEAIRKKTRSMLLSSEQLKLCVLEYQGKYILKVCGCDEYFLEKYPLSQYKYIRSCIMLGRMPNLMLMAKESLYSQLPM

On to `COC/C=C/C(=O)N1CCn2nc(-c3nc(-c4ccc5c(c4)CCNC5=O)c4ccsc4c3-c3ccc(F)cc3OC(C)C)cc2C1` [Compound 277], for which the IC50 (commonly the concentration that inhibits the measured activity by half) in assay [1] (Compounds 10-999) was 100 to 1000 nM. The “% of modification” value in assay [2] (setting [3]) is recorded as “A (percent of modification of PIK3CA protein ≥75%)”.
`C=CC(=O)N1CCn2nc(-c3nc(-c4cnn(C)c4)c4ccsc4c3-c3c(F)cc(F)cc3OCC(C)O)cc2C1C` (centres unmarked) [Compound 551]: in assay [1] (Compounds 10-999), the IC50 was under 100 nM. Further, the “% of modification” value in assay [2] (setting [3]) was “A (percent of modification of PIK3CA protein ≥75%)”.
`C=CC(=O)N1CCn2nc(-c3nc(N4CC5(CCN(C)C5)C4)c4ccsc4c3-c3c(F)cc(F)cc3OCCOC)cc2C1C` (centres unmarked) [Compound 1054]: the IC50 in assay [1] (Compounds 1000-1279) lay within 100 to 1000 nM. In addition, the “% of modification” value in assay [2] (setting [4]) was “C (25%≤percent of modification <50%)”.
For `C=CC(=O)N1Cc2cc(-c3nc(-c4cnn(C)c4)c4ccsc4c3-c3c(F)cc(F)cc3OCCOC)nn2CC1C` (centres unmarked) [Compound 469], the half-maximal inhibitory concentration (IC50) in assay [1] (Compounds 10-999) is under 100 nM. Moreover, the “% of modification” value in assay [2] (setting [3]) is “A (percent of modification of PIK3CA protein ≥75%)”.
As to `C=CC(=O)N1CCc2nc(-c3nc(-c4ccc5c(c4)NC(=O)C5)c4ccsc4c3-c3c(F)cc(F)cc3OCCOC)sc2C1` [Compound 1003], the IC50 in assay [1] (Compounds 1000-1279) is under 100 nM. Further, the “% of modification” value in assay [2] (setting [4]) is given as “A (percent of modification of PIK3CA protein ≥75%)”.
For `C=CC(=O)N1CCn2nc(-c3nc(N4CCCCC4)c4ccsc4c3-c3ccc(F)cc3OCC3CCN(C)C(=O)C3)cc2C1` (centres unmarked) [Compound 243], the IC50 in assay [1] (Compounds 10-999) lay within 100 to 1000 nM. Besides, in assay [2] (setting [3]), the “% of modification” value was “A (percent of modification of PIK3CA protein ≥75%)”.
With `C=CC(=O)N1CCc2ncc(-c3nc(-c4cnc5c(c4)CN(C)CC5(F)F)c4ccsc4c3-c3c(F)cc(F)cc3OCCOC)cc2C1` [Compound 1279], the concentration for half-maximal inhibition (IC50) in assay [1] (Compounds 1000-1279) is under 100 nM. The “% of modification” value in assay [2] (setting [4]) is listed as “A (percent of modification of PIK3CA protein ≥75%)”.
Turning to `C=CC(=O)N1Cc2cc(-c3nc(-c4cnnc(C)c4)c4ccsc4c3-c3c(F)cc(F)cc3OCC(C)(C)O)nn2[C@@H](C)C1` [Compound 882], the IC50 in assay [1] (Compounds 10-999) is under 100 nM. For the same compound, the “% of modification” value in assay [2] (setting [4]) is on record as “A (percent of modification of PIK3CA protein ≥75%)”.
As for `C=CC(=O)N1Cc2cc(-c3nc(-c4ccc5c(c4)CCN(C)C5)c4ccsc4c3-c3c(F)cc(F)cc3OCCOC)nn2C(C)C1` (centres unmarked) [Compound 558], in assay [1] (Compounds 10-999), the IC50 fell in the range of 100 to 1000 nM. Besides, in assay [2] (setting [3]), the “% of modification” value was “D (percent of modification <25%)”.
As to `C=CC(=O)N1Cc2cc(-c3nc(-c4cn(C)cn4)c4ccsc4c3-c3c(F)cc(F)cc3OCC(C)O)nn2C(C)C1` (centres unmarked) [Compound 639], the IC50 in assay [1] (Compounds 10-999) was under 100 nM. The “% of modification” value in assay [2] (setting [3]) is recorded as “A (percent of modification of PIK3CA protein ≥75%)”.
The corresponding values for `C=CC(=O)N1Cc2cc(-c3nc(-c4ccc5c(c4)CN(C)C5=O)c4ccsc4c3-c3c(F)cc(F)cc3OCCOC)nn2C[C@H]1C` [Compound 795] are under 100 nM and “A (percent of modification of PIK3CA protein ≥75%)”.
The corresponding values for `C=CC(=O)N1Cc2cc(-c3nc(-c4ccc5nn(C)cc5c4)c4ccsc4c3-c3c(F)cc(F)cc3OC(C)C)nn2CC1C` (centres unmarked) [Compound 530] are under 100 nM and “A (percent of modification of PIK3CA protein ≥75%)”.
The corresponding values for `C=CC(=O)N1CCn2ncc(-c3nc(-c4ccc5c(c4)CCNC5)c4ccsc4c3-c3ccc(F)cc3OCCOC)c2C1` [Compound 77] are over 3000 nM and “D (percent of modification <25%)”.
Turning to `C=CC(=O)N1CC(n2cc(-c3nc(-c4ccc(C(N)=O)cc4)c4ccsc4c3-c3ccc(F)cc3OC)cn2)C1` [Compound 172], in assay [1] (Compounds 10-999), the IC50 was under 100 nM. In addition, the “% of modification” value in assay [2] (setting [3]) was “A (percent of modification of PIK3CA protein ≥75%)”.
On the same counts, the results for `C=CC(=O)N1CC(n2nc(-c3nc(-c4ccc5c(c4)CCNC5)c4ccsc4c3-c3ccc(F)cc3OCCOC)ccc2=O)C1` [Compound 204] are 100 to 1000 nM and “B (50%<percent of modification <75%)”.
Regarding `C=CC(=O)N1CCc2ncc(-c3nc(-c4ccc5c(c4)CN(C)C5=O)c4ccsc4c3-c3c(F)cc(F)cc3OCCOC)cc2C1` [Compound 402], in assay [1] (Compounds 10-999), the IC50 is under 100 nM. The “% of modification” value in assay [2] (setting [3]) is given as “A (percent of modification of PIK3CA protein ≥75%)”.
The corresponding values for `C=C(F)C(=O)N1CC(n2cc(-c3nc(-c4ccc5c(c4)CCNC5)c4ccsc4c3-c3ccc(F)cc3OC)cn2)C1` [Compound 114] are 1000 to 3000 nM and “A (percent of modification of PIK3CA protein ≥75%)”.
As to `C=CC(=O)N1CCc2nc(-c3nc(-c4ccc(=O)n(C)c4)c4ccsc4c3-c3c(F)cc(F)cc3OCCOC)sc2C1` [Compound 997], the IC50 in assay [1] (Compounds 10-999) is under 100 nM. In assay [2] (setting [4]), the “% of modification” value is on record as “A (percent of modification of PIK3CA protein ≥75%)”.
`C=CC(=O)N1CCc2ncc(-c3nc(N4CCC5(CC4)COC5)c4ccsc4c3-c3c(F)cc(F)cc3OC(C)C)cc2C1` [Compound 423]: in assay [1] (Compounds 10-999), the IC50 was 100 to 1000 nM. Also, in assay [2] (setting [3]), the “% of modification” value is reported as “A (percent of modification of PIK3CA protein ≥75%)”.
On the same counts, the results for `C=CC(=O)N1CCc2nc(-c3nc(-c4ccc5c(c4)CCC(N(C)C)C5)c4ccsc4c3-c3ccc(F)cc3OCCOC)sc2C1` (centres unmarked) [Compound 148] are under 100 nM and “A (percent of modification of PIK3CA protein ≥75%)”.
The corresponding values for `C=CC(=O)N1CCn2nc(-c3nc(-c4cnn(C(F)F)c4)c4ccsc4c3-c3ccc(F)cc3OCCOC)cc2C1` [Compound 245] are under 100 nM and “A (percent of modification of PIK3CA protein ≥75%)”.
In the case of `C=CC(=O)N1CCn2nc(-c3nc(-c4ccnc(N)c4)c4ccsc4c3-c3ccc(F)cc3OC(F)F)cc2C1` [Compound 226], the IC50 in assay [1] (Compounds 10-999) was under 100 nM. Moreover, in assay [2] (setting [3]), the “% of modification” value is given as “A (percent of modification of PIK3CA protein ≥75%)”.
As for `C=CC(=O)N1CCn2nc(-c3nc(-c4ccc5c(c4)CCN(C)CC5)c4c(c3-c3c(F)cc(F)cc3OCCOC)CCC4)cc2[C@H]1C` [Compound 1223], the IC50 in assay [1] (Compounds 1000-1279) is under 100 nM. Further, in assay [2] (setting [4]), the “% of modification” value was “A (percent of modification of PIK3CA protein ≥75%)”.
In the case of `C=CC(=O)N1Cc2cc(-c3nc(N4CCc5c(cnn5C)C4)c4ccsc4c3-c3c(F)cc(F)cc3OCCOC)nn2CC1C` (centres unmarked) [Compound 949], the IC50 in assay [1] (Compounds 10-999) was under 100 nM. For the same compound, the “% of modification” value in assay [2] (setting [4]) was “A (percent of modification of PIK3CA protein ≥75%)”.
Turning to `C=CC(=O)N1CCc2ncc(-c3nc(-c4ccc5c(c4)CNC(=O)C54CC4)c4ccsc4c3-c3c(F)cc(F)cc3OCCOC)cc2C1` [Compound 1192], in assay [1] (Compounds 1000-1279), the IC50 is under 100 nM. Besides, the “% of modification” value in assay [2] (setting [4]) is “A (percent of modification of PIK3CA protein ≥75%)”.
The corresponding values for `C=CC(=O)N1CCn2nc(-c3nc(-c4ccc(C5CCCN5C)cc4)c4ccsc4c3-c3c(F)cc(F)cc3OCCOC)cc2C1C` (centres unmarked) [Compound 1237] are under 100 nM and “A (percent of modification of PIK3CA protein ≥75%)”.
Consider `C=CC(=O)N1CCn2nc(-c3nc(-c4ccn(C)c(=O)c4)c4ccsc4c3-c3c(F)cc(F)cc3OCCOC)cc2C1C` (centres unmarked) [Compound 986], for which the IC50 in assay [1] (Compounds 10-999) was under 100 nM. Besides, the “% of modification” value in assay [2] (setting [4]) is “A (percent of modification of PIK3CA protein ≥75%)”.
With `C=CC(=O)N1CCn2nc(-c3nc(-c4ccc5c(c4)CCN(C(C)C)C5)c4ccsc4c3-c3ccc(F)cc3OC(F)F)nc2C1` [Compound 218], the half-inhibitory concentration (IC50) in assay [1] (Compounds 10-999) was under 100 nM. Further, the “% of modification” value in assay [2] (setting [3]) is recorded as “A (percent of modification of PIK3CA protein ≥75%)”.
As to `C=CC(=O)N1Cc2cc(-c3nc(-c4cnc5c(cnn5C)c4)c4ccsc4c3-c3c(F)cc(F)cc3OCCO)nn2C[C@H]1C` [Compound 885], the IC50 in assay [1] (Compounds 10-999) was under 100 nM. Also, in assay [2] (setting [4]), the “% of modification” value is on record as “A (percent of modification of PIK3CA protein ≥75%)”.
For `C=CC(=O)N1CCn2nc(-c3nc(-c4ccc5c(c4)CCN(C(C)C)C5)c4ccsc4c3-c3ccc(F)cc3OC)cc2C1` [Compound 263], in assay [1] (Compounds 10-999), the IC50 is under 100 nM. Moreover, in assay [2] (setting [3]), the “% of modification” value is listed as “A (percent of modification of PIK3CA protein ≥75%)”.
The corresponding values for `C=CC(=O)N1CCn2nc(-c3nc(-c4cnn(C)c4)c4ccsc4c3-c3c(F)cc(F)cc3OCCO)cc2[C@@H]1C` [Compound 640] are under 100 nM and “A (percent of modification of PIK3CA protein ≥75%)”.
On the same counts, the results for `C=CC(=O)N1CCc2nc(-c3nc(-c4ccc5c(c4)C(O)CC5)c4ccsc4c3-c3c(F)cc(F)cc3OCCOC)sc2C1` (centres unmarked) [Compound 416] are under 100 nM and “A (percent of modification of PIK3CA protein ≥75%)”.
On the same counts, the results for `C=CC(=O)N1CCc2ncc(-c3nc(-c4cnn(C)c4)c4ccsc4c3-c3c(F)cc(F)cc3OC(C)C)cc2C1` [Compound 324] are under 100 nM and “A (percent of modification of PIK3CA protein ≥75%)”.
Consider `C=CC(=O)N1CCc2ccc(-c3nc(-c4ccc5c(c4)CNC5=O)c4ccsc4c3-c3c(F)cc(F)cc3OC(C)C)nc2C1` [Compound 411, 5-[7-(2,4-difluoro-6-isopropoxy-phenyl)-6-(7-prop-2-enoyl-6,8-dihydro-5H-1,7-naphthyridin-2-yl)thieno[3,2-c]pyridin-4-yl]isoindolin-1-one], for which the IC50 in assay [1] (Homo sapiens, BT-474, Compounds 10-999) is under 100 nM. In addition, in assay [2] (setting [3]), the “% of modification” value is on record as “A (percent of modification of PIK3CA protein ≥75%)”.
